Laboratory results: patent US20170112789A1, “INTRAVENOUS BACLOFEN AND METHODS OF TREATMENT” (Allaysis, LLC, priority 2015, published 2017)

Experiments:
[1] = Pharmacokinetics and bioavailability of oral vs intravenous baclofen, randomized open-label 2-way crossover study (Example 3); format: in vivo, human; conditions: for Cmax: single dose
Procedure: (§1) Twelve healthy human volunteers were recruited. The volunteers were medication free for 48 hours before, during, and 24 hours after the administration of the study drug.
(§2) The 12 volunteers participated in a randomized, open-label, 2-way crossover study to compare the pharmacokinetics and bioavailability of oral baclofen with an intravenous baclofen formulation. The oral formulation was a 10 mg baclofen tablet. A single intravenous dose of 5 mg was administered over 15 minutes, using the commercially available 2 mg/mL intrathecal baclofen formulation (Lioresal Intrathecal). Blood samples (6 mL) for the measurement of plasma concentrations of baclofen were collected in blood collection tubes containing K2 ethylenediaminetetraacetic acid at the following times: prior to dosing; at 5, 15, and 30 minutes; and at 1, 2, 4, 6, 8, 10, 12, and 24 hours after drug administration.
Study plasma samples were prepared by adding 50 μL of a 500 μg/mL levetiracetam solution (internal standard) to 250 μL of K2 ethylenediaminetetraacetic acid (EDTA) human plasma. Baclofen and the internal standard were extracted from plasma by precipitating the protein with methanol and drying it under nitrogen at approximately 40° C. The dried residues were reconstituted in 300 μL of a mobile phase consisting of 20 mM ammonium acetate-methanol (75:25) solution. After 1 minute of vortex mixing, the reconstituted sample solution was filtered and injected onto the high-performance liquid chromatograph-mass spectrometer system. Standard curve samples over a range of 20 to 400 ng/mL baclofen and quality control samples containing 30 (low), 80 (medium), and 240 ng/mL (high) baclofen were prepared and analyzed in triplicate along with the study samples. The assay was linear over the range 20-400 ng/mL with a lower limit of quantification of 20 ng/mL.
Baclofen concentration-time data were analyzed using a noncompartmental pharmacokinetic approach with Phoenix software (version 6.2; Pharsight Corporation, Mountain View, Calif.). The terminal rate constant (λz) was determined from the slope of the terminal log-linear portion of the plasma concentration-time curve, and the terminal half-life (t1/2) was calculated as In 2/(λz). Maximum plasma concentrations (Cmax) and time to maximum concentration (Tmax) were determined by direct observation of the data. The area under the concentration-time curve to the last nonzero plasma concentration (Clast) that was above half the lower limit of quantification (10 ng/mL) was calculated by the trapezoidal rule and reported as AUClast The area under the concentration-time curve extrapolated to infinity (AUC0-∞) was calculated as AUClast+(Clast/λz). Mean and standard deviation values for the parameters were also obtained using the descriptive statistics tool in Phoenix version 6.2. A paired t-test was used to determine if statistical differences existed in log normalized, dose-adjusted area under the curve between oral and intravenous arms.

healthy human volunteers = assay: Tolerability of the intravenous formulation in the crossover study (Example 3); format: in vivo
Procedure: as §1, §2

[2] = Pharmacokinetics of oral and intravenous baclofen at clinically relevant doses, dose escalation crossover study (Example 4); format: in vivo, human; conditions: for Cmax / half-life / bioavailability: human, plasma
Procedure: (§3) Thirty-six healthy adults participated in the study.
(§4) The thirty-six subjects were enrolled in a randomized, open-label, cross over study to evaluate the safety profile and pharmacokinetics of oral and an investigational intravenous baclofen formulation at clinically relevant doses. Three cohorts of twelve subjects received single doses of baclofen: 7.5, 11.5 or 15 mg intravenously and 10, 15, or 20 mg taken orally with a 48 hour washout phase. The highest dosing cohort received an additional 15 mg extended (60 minute) infusion. Blood samples for baclofen pharmacokinetic analysis were collected pre-dose and at regular intervals over a 24 hour time period. Over this 24 hour period subjects were assessed for sedation, nystagmus and ataxia to evaluate clinical response. Maximum concentration (Cmax) and time to maximum concentration (Tmax) were determined by visual inspection. Noncompartmental pharmacokinetic analyses were used to estimate area under the curve (AUC), half life (t1/2), clearance (CL) and volume of distribution. Absolute bioavailability was calculated using dose normalized oral and intravenous AUCs. Dose proportionality was assessed using analysis of variance (ANOVA) and a power model. Bioequivalence was evaluated using Phoenix Software (Centara, Pharsight Corporation, Mountain View, Calif.).

healthy adults = assay: Tolerability/safety (sedation, nystagmus, ataxia) in the dose escalation study (Example 4); format: in vivo, human; conditions: for subjects with asymptomatic nystagmus: 10 minute infusion, of twelve subjects
Procedure: as §3, §4

[3] = cited from earlier work
[4] = human, plasma, 5 mg IV, mean ± SD
[5] = human, plasma, 10 mg oral, mean ± SD
[6] = iv, 7.5 mg, IV 10 min infusion 7.5 mg, mean
[7] = iv, 11.5 mg, IV 10 min infusion 11.5 mg, mean
[8] = iv, 15 mg, IV 10 min infusion 15 mg, mean
[9] = iv, 15 mg, IV 60 min infusion 15 mg, mean

Question: Which “time point of observed maximum baclofen concentration” value ([1]; 5 mg IV formulation) does the source give for `NCC(CC(=O)O)c1ccc(Cl)cc1` (racemic) [Baclofen, 4-amino-3-(4-chlorophenyl) butanoic acid] here?
Answer: The value was 5 min.

Question: And the “AUC0-∞/Dose” value ([1]; 5 mg IV, mean ± SD)?
Answer: The value was 141 ± 33 ng·h/mL/mg.

Question: And the “AUC0-∞/Dose” value ([1]; 10 mg oral, mean ± SD)?
Answer: Its value is 102 ± 23 ng·h/mL/mg.

Question: What about the T1/2 ([1]; 10 mg oral, mean ± SD) of the same compound?
Answer: The T1/2 was 4.03 ± 0.73 h.

Question: What about the half-life ([1]; human, plasma, iv, 5 mg, 5 mg IV, mean ± SD) of the same compound?
Answer: The half-life was 4.52 h.

Question: What about the bioavailability ([1]; human, plasma, oral, 10 mg, 10 mg oral tablet, absolute, vs 5 mg IV, mean ± SD) of the same compound?
Answer: Its bioavailability is 74%.

Question: What about the half-life ([1]; human, plasma, po, 10 mg, 10 mg oral, mean ± SD) of the same compound?
Answer: Its half-life is 4 h.

Question: What about the AUC(0-inf) [1, 4] of the same compound?
Answer: The AUC(0-inf) was 707 ± 166 ng·h/mL.

Question: And the AUC(0-t) [1, 4]?
Answer: The AUC(0-t) was 593 ± 111 ng·h/mL.

Question: What about the AUC(0-inf) [1, 5] of the same compound?
Answer: The AUC(0-inf) was 1020 ± 232 ng·h/mL.

Question: What about the AUC(0-t) [1, 5] of the same compound?
Answer: The AUC(0-t) was 878 ± 199 ng·h/mL.

Question: And the Tmax ([1]; human, plasma, 10 mg oral, median (min, max))?
Answer: Its Tmax is 1 h.

Question: And the Cmax ([1]; human, 5 mg IV over 15 minutes, plasma, mean ± SD, 12 volunteers)?
Answer: Its Cmax is 310 ng/mL.

Question: And the Cmax ([1]; human, 10 mg oral tablet, plasma, mean ± SD)?
Answer: The Cmax was 174 ng/mL.

Question: And the “tolerability of the intravenous formulation” value (healthy human volunteers; 5 mg IV over 15 minutes)?
Answer: The value was “well tolerated”.

Question: What about the “severity of treatment-emergent adverse events” value (healthy human volunteers; characterized by the investigator) of the same compound?
Answer: The value was “mild in severity”.

Question: What about the “time for all subjects to return to baseline values after drug administration” value (healthy human volunteers; in vivo) of the same compound?
Answer: Its value is at most 6 h.

Question: And the Cmax ration ([2]; 15 mg intravenous infusion over 10 minutes vs oral)?
Answer: Its Cmax ration is 263%.

Question: What about the Cmax ration ([2]; 15 mg intravenous infusion over 60 minutes vs oral) of the same compound?
Answer: Its Cmax ration is 149%.

Question: And the “dose proportionality of AUC” value ([2]; ANOVA and power model analysis)?
Answer: The value was “greater than proportional increase with dose”.

Question: And the “AUC(0-inf)” value ([2]; IV 10 min infusion 7.5 mg, mean)?
Answer: Its value is 562 ng·h/mL.

Question: And the “AUC(0-inf)” value ([2]; IV 10 min infusion 11.5 mg, mean)?
Answer: The value was 1186 ng·h/mL.

Question: And the “AUC(0-inf)” value ([2]; IV 10 min infusion 15 mg, mean)?
Answer: The value was 1520 ng·h/mL.

Question: And the “AUC(0-inf)” value ([2]; IV 60 min infusion 15 mg, mean)?
Answer: The value was 1447 ng·h/mL.

Question: What about the “AUC(0-inf)” value ([2]; PO 10 mg, mean) of the same compound?
Answer: Its value is 714 ng·h/mL.

Question: And the “AUC(0-inf)” value ([2]; PO 15 mg, mean)?
Answer: The value was 1201 ng·h/mL.

Question: What about the “AUC(0-inf)” value ([2]; PO 20 mg, mean) of the same compound?
Answer: The value was 1598 ng·h/mL.

Question: And the “bioequivalence of oral and intravenous doses” value ([2]; based on AUC and Cmax)?
Answer: The value was “bioequivalent based on AUC, but not based on Cmax”.

Question: What about the “dose proportionality of mean Cmax” value ([2]; both forms of administration, ANOVA and power model) of the same compound?
Answer: Its value is “increased proportionally with dose”.

Question: What about the Cmax [2, 6] of the same compound?
Answer: Its Cmax is 310 ng/mL.

Question: What about the half-life [2, 6] of the same compound?
Answer: The half-life was 3.37 h.

Question: And the Cmax [2, 7]?
Answer: The Cmax was 524 ng/mL.

Question: What about the half-life [2, 7] of the same compound?
Answer: Its half-life is 4.97 h.

Question: What about the Cmax [2, 8] of the same compound?
Answer: Its Cmax is 720 ng/mL.

Question: And the half-life [2, 8]?
Answer: The half-life was 5.82 h.

Question: And the Cmax [2, 9]?
Answer: The Cmax was 382 ng/mL.

Question: What about the half-life [2, 9] of the same compound?
Answer: Its half-life is 6.22 h.

Question: And the bioavailability ([2]; oral, data from all cohorts combined, read-out: mean bioavailability)?
Answer: Its bioavailability is 89%.

Question: What about the Cmax ([2]; po, 10 mg, PO 10 mg, mean) of the same compound?
Answer: The Cmax was 124 ng/mL.

Question: And the half-life ([2]; po, 10 mg, PO 10 mg, mean)?
Answer: Its half-life is 3.94 h.

Question: What about the Cmax ([2]; po, 15 mg, PO 15 mg, mean) of the same compound?
Answer: Its Cmax is 201 ng/mL.

Question: What about the half-life ([2]; po, 15 mg, PO 15 mg, mean) of the same compound?
Answer: Its half-life is 4.65 h.

Question: And the Cmax ([2]; po, 20 mg, PO 20 mg, mean)?
Answer: Its Cmax is 255 ng/mL.

Question: What about the half-life ([2]; po, 20 mg, PO 20 mg, mean) of the same compound?
Answer: The half-life was 5.49 h.

Question: What about the bioavailability ([2]; po, data from all cohorts combined, read-out: absolute oral bioavailability, range) of the same compound?
Answer: The bioavailability was 42 to 132%.

Question: And the bioavailability ([2]; PO 10 mg (cohort 1), mean, read-out: Bioavailability)?
Answer: The bioavailability was 102%.

Question: And the bioavailability ([2]; PO 15 mg (cohort 2), mean, read-out: Bioavailability)?
Answer: The bioavailability was 80%.

Question: And the bioavailability ([2]; PO 20 mg (cohort 3), mean, read-out: Bioavailability)?
Answer: Its bioavailability is 85%.

Question: And the “subjects with asymptomatic nystagmus” value (healthy adults; 7.5 mg)?
Answer: The value was “two”.

Question: And the “subjects with asymptomatic nystagmus” value (healthy adults; 11.5 mg)?
Answer: Its value is “six”.

Question: What about the occurrence of nystagmus (healthy adults; 15 mg 60 minute infusion) of the same compound?
Answer: Its occurrence of nystagmus is “not observed”.

Question: What about the “subjects with asymptomatic nystagmus” value (healthy adults; 15 mg) of the same compound?
Answer: Its value is “six”.

Question: And the ataxia (healthy adults; after the 20 mg oral dose)?
Answer: The ataxia was “one subject experienced mild transient ataxia”.

Question: What about the tolerability (healthy adults; all oral and IV doses) of the same compound?
Answer: The tolerability was “generally well tolerated”.

Question: And the “sedation, changes from baseline” value (healthy adults; by route of administration or by dose)?
Answer: Its value is “not statistically significant”.

Question: What about the adverse effects (healthy adults; following both oral and intravenous doses) of the same compound?
Answer: Its adverse effects is “Mild, self-limited adverse effects”.

Question: And the solubility in water [3]?
Answer: Its solubility in water is “slightly soluble in water”.
